AC50 data for eleven compounds are collected here from ChEMBL document CHEMBL5291721, “A preclinical secondary pharmacology resource illuminates target-adverse drug reaction associations of marketed drugs” (Nat Commun, 2023).

For orientation: AC50 means the midpoint of the concentration-response curve, whichever way the signal moves. Lower therefore signals activity at low concentration.

Assay [1] addresses T1, Endothelin-1 receptor (Homo sapiens, UniProt P25101).
T1 sequence (P25101 whole entry): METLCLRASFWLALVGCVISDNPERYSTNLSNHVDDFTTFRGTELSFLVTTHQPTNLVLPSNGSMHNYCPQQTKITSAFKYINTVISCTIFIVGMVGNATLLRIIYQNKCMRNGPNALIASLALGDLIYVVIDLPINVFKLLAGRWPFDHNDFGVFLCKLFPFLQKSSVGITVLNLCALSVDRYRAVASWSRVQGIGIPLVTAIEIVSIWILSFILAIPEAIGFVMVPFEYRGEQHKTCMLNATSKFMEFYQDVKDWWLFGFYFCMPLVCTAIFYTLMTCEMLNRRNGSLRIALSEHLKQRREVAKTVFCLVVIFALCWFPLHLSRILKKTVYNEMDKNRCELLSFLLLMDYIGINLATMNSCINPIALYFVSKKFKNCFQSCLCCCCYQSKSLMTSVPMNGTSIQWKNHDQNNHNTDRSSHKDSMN

For assay [2], the target named is T2, 5-hydroxytryptamine receptor 1A (Homo sapiens, UniProt P08908).
T2 sequence (P08908 whole entry): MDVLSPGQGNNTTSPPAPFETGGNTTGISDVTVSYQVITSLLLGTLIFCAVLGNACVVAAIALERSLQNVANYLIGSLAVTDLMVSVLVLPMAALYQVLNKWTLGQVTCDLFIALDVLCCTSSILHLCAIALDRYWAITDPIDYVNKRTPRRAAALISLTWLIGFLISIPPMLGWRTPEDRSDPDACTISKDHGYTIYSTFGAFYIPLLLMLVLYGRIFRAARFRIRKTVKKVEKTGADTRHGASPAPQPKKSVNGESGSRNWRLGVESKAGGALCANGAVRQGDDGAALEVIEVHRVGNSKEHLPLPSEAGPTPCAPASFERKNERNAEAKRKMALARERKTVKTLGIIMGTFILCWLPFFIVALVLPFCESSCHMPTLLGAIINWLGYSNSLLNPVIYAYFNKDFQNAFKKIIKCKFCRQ
The format is functional, cell-based.

The target of assay [3] is T3, Thromboxane A2 receptor (Homo sapiens, UniProt P21731).
T3 sequence (P21731 whole entry): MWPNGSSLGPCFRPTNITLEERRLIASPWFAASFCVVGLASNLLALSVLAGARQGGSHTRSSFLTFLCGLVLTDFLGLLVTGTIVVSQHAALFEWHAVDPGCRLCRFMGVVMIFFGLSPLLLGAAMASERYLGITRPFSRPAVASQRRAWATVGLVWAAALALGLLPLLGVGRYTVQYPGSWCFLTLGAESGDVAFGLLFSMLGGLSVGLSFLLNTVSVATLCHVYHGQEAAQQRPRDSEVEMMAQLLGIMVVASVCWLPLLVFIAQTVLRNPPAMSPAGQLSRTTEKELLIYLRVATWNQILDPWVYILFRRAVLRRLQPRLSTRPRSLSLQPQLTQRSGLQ

The target in assay [4] is 3',5'-cyclic-AMP phosphodiesterase 4D (Homo sapiens, UniProt Q08499). It counts as functional.
3',5'-cyclic-AMP phosphodiesterase 4D, sequence (Q08499 whole entry): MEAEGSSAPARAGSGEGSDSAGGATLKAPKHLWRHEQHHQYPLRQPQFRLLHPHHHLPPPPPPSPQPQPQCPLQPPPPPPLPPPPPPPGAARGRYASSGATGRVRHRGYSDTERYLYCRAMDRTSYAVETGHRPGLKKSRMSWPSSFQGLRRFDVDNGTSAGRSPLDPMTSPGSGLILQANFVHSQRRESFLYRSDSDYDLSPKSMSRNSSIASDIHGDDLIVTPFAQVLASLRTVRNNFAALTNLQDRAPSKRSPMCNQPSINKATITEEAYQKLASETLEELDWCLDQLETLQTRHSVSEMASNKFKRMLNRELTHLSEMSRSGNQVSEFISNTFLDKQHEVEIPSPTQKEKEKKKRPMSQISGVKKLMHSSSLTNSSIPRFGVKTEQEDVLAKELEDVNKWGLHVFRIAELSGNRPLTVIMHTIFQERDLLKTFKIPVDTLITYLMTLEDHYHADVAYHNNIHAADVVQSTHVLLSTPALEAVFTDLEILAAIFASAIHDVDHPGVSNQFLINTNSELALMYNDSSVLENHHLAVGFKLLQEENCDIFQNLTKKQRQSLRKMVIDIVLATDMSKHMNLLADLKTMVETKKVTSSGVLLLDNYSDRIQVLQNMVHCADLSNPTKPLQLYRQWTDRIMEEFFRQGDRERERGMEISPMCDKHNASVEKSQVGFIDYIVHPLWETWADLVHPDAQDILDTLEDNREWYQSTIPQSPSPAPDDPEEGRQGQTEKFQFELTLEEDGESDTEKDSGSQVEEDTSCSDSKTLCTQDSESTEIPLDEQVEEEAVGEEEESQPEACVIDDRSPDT
For assay [5], the target named is T4, Adenosine receptor A3 (Homo sapiens, UniProt P0DMS8).
T4 sequence (P0DMS8 whole entry): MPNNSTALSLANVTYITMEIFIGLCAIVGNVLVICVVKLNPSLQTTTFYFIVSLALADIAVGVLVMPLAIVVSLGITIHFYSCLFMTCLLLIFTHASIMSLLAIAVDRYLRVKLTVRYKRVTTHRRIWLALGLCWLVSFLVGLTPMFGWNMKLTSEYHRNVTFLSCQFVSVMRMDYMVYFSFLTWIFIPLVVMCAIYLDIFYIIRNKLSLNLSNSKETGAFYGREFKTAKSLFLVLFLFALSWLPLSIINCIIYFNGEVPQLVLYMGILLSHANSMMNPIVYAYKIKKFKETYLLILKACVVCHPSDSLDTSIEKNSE

Assay [6] concerns the target Delta-type opioid receptor (Homo sapiens, UniProt P41143).
Assay [7] deals with Beta-2 adrenergic receptor (Homo sapiens, UniProt P07550).
Beta-2 adrenergic receptor, sequence (P07550 whole entry): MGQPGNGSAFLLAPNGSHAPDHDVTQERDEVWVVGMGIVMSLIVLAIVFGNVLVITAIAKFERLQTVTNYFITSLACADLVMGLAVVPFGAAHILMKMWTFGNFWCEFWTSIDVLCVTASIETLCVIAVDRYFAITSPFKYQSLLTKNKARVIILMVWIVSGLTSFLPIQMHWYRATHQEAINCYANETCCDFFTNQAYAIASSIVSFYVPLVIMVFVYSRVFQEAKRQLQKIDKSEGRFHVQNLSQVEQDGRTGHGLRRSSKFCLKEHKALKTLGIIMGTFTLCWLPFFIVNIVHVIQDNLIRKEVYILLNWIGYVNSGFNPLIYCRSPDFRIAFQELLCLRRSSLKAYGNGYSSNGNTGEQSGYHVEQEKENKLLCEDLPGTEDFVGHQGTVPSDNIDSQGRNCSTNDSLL
Assay [8] addresses Melanocortin receptor 3 (Homo sapiens, UniProt P41968).
Assay [9] deals with T5, Alpha-2A adrenergic receptor (Homo sapiens, UniProt P08913).
T5 sequence (P08913 whole entry): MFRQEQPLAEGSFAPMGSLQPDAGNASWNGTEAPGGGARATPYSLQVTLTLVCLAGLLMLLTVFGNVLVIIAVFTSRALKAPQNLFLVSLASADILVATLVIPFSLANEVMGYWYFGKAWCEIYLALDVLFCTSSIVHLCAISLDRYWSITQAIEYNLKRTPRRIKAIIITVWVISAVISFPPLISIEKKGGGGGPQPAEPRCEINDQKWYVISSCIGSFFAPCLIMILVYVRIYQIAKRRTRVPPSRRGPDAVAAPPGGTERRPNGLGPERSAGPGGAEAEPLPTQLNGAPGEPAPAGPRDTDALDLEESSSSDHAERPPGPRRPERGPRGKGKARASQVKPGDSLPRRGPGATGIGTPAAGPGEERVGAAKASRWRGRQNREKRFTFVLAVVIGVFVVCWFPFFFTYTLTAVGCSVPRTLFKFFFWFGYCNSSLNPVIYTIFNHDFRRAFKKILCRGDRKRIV
It counts as functional, cell-based.

Assay [10] deals with Motilin receptor (Homo sapiens, UniProt O43193).
Motilin receptor, sequence (O43193 whole entry): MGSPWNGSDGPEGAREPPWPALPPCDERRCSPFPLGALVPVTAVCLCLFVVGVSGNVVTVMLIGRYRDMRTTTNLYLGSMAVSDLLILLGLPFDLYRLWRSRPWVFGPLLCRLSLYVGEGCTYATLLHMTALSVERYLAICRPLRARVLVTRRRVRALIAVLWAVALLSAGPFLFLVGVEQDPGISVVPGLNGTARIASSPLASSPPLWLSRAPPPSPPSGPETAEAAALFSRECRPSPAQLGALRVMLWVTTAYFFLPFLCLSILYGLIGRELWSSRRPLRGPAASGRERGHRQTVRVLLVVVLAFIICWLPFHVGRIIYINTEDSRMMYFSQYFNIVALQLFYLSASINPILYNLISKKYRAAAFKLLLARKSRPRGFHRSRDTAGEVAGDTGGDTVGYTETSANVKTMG
Assay [11] concerns the target Sodium-dependent noradrenaline transporter (Homo sapiens, UniProt P23975).
Assay [12] concerns the target T6, Estrogen receptor (Homo sapiens, UniProt P03372).
T6 sequence (P03372 whole entry): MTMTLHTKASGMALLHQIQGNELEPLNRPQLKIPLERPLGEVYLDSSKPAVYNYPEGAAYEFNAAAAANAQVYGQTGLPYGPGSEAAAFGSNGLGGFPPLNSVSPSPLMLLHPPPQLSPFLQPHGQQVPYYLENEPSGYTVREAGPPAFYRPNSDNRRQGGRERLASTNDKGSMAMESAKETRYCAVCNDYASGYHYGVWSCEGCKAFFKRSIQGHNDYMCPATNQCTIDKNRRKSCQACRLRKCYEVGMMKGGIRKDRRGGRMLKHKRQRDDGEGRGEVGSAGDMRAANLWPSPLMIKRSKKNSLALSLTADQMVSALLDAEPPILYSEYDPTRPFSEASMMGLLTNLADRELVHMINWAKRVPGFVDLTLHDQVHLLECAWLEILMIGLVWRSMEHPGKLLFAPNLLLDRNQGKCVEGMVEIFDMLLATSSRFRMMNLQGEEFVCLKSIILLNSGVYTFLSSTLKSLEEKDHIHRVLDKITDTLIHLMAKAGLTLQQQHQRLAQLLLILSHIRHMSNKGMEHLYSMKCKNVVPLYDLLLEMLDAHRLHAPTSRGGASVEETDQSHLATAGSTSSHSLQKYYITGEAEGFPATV
Note: assay procedure not described here.

Melanocortin receptor 3, sequence (P41968 whole entry): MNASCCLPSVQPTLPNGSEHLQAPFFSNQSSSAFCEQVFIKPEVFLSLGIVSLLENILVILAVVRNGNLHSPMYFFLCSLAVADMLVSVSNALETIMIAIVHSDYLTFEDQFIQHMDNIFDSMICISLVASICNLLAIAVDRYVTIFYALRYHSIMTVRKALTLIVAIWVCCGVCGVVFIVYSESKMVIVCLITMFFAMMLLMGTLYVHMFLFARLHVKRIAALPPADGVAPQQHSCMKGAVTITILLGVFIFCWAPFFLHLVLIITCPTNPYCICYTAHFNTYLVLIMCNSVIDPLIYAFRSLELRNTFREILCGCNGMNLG
Sodium-dependent noradrenaline transporter, sequence (P23975 whole entry): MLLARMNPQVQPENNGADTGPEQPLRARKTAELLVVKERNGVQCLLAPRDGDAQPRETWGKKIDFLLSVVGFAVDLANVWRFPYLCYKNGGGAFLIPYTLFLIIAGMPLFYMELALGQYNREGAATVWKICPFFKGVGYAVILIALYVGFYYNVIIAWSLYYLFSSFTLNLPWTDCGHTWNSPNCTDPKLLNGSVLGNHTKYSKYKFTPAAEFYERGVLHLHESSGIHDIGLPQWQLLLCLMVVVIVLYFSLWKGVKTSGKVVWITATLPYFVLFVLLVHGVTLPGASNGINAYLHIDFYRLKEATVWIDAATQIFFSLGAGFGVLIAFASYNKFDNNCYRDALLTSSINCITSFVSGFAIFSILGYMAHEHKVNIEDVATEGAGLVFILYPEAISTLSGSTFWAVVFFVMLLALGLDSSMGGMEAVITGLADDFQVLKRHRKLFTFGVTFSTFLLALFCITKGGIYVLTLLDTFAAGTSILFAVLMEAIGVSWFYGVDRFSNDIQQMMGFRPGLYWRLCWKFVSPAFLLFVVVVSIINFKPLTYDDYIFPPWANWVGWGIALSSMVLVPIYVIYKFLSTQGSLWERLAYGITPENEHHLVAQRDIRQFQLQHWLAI
Delta-type opioid receptor, sequence (P41143 whole entry): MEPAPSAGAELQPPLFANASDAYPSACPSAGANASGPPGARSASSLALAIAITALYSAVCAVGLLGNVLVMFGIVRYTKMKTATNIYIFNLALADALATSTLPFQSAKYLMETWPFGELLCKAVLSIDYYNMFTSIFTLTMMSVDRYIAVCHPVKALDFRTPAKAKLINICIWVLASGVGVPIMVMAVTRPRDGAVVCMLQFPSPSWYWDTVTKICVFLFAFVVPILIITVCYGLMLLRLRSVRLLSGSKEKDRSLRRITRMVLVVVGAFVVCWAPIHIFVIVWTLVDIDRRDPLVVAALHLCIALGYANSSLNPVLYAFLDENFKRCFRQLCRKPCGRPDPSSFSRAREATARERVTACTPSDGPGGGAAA

For `NCCCC(O)(P(=O)(O)O)P(=O)(O)O` [ALENDRONIC ACID], the concentration at half-maximal activity (AC50) in assay [1] was more than 30 µM; in [2], more than 10 µM; in [3] it was more than 30 µM; in [4], more than 30 µM; in [5], more than 30 µM; in assay [6] it was more than 10 µM. Moreover, the concentration at half-maximal activity (AC50) in assay [7] is more than 10 µM; in [8], more than 30 µM; in assay [9], more than 10 µM; in assay [10], more than 10 µM.
As to `NS(=O)(=O)c1cc2c(cc1C(F)(F)F)NC(Cc1ccccc1)NS2(=O)=O` (centres undefined) [BENDROFLUMETHIAZIDE], the AC50 in assay [2] was more than 10 µM; in assay [3], more than 10 µM; in [4], more than 30 µM; in assay [5], more than 10 µM; in assay [6] it was more than 30 µM; in assay [7], more than 10 µM. For the same compound, the AC50 in assay [8] is more than 10 µM; in [9], more than 10 µM; in [11] it was more than 30 µM; in [10], more than 10 µM.
As for `COc1cc(OC)c(C(=O)CCCN2CCCC2)c(OC)c1` [BUFLOMEDIL], the AC50 in assay [1] is more than 30 µM; in assay [2] it was 29 µM; in assay [3], more than 30 µM; in [4], more than 30 µM; in assay [5] it was more than 30 µM; in assay [6], more than 30 µM. Moreover, the concentration at half-maximal activity (AC50) in assay [7], in assay [8], in assay [9], in [11] and in assay [10] was more than 30 µM each time.
For the compound `CCCCCCNC(=O)n1cc(F)c(=O)[nH]c1=O` [CARMOFUR], the AC50 in [1], in assay [2], in assay [3], in assay [4], in assay [5] and in assay [6] was more than 30 µM throughout. The AC50 in assay [7], in assay [8], in assay [9], in [11] and in assay [10] was more than 30 µM in each case.
`C=CC1=C(C(=O)O)N2C(=O)[C@@H](NC(=O)/C(=N\OCC(=O)O)c3csc(N)n3)[C@H]2SC1` [CEFIXIME]: the AC50 in assay [12], in assay [1], in [4], in [5], in assay [8] and in assay [9] was more than 30 µM in each case. The half-maximal activity concentration (AC50) in [11] and in [10] was more than 30 µM each time.
As to `N[C@H](Cc1cc(I)c(Oc2cc(I)c(O)c(I)c2)c(I)c1)C(=O)O` [DEXTROTHYROXINE], the AC50 is more than 30 µM in assay [1]; 8.2 µM in assay [2]; 21.9 µM in assay [3]; 0.26 µM in assay [4]; 12.5 µM in [5]; more than 30 µM in [6]. The AC50 is more than 10 µM in assay [7]; more than 30 µM in assay [8]; more than 10 µM in [9]; more than 30 µM in assay [11]; more than 10 µM in [10].
In the case of `Nc1nc2c(c(=O)[nH]1)N(C=O)C(CNc1ccc(C(=O)N[C@@H](CCC(=O)O)C(=O)O)cc1)CN2` (some centres undefined) [LEUCOVORIN], the concentration at half-maximal activity (AC50) in assay [1], in [2], in assay [3], in assay [4], in assay [5] and in [6] was more than 30 µM throughout. Also, the half-maximal activity concentration (AC50) in assay [7], in [8], in assay [9], in assay [11] and in [10] was more than 30 µM each time.
For `O=C1Nc2ccc(Cl)cc2C(c2ccccc2)=NC1O` (centres undefined) [OXAZEPAM], the half-maximal activity concentration (AC50) in assay [1] is more than 30 µM; in assay [2], more than 10 µM; in assay [3], more than 30 µM; in [4], more than 10 µM; in [5], more than 30 µM; in assay [6], more than 10 µM. For the same compound, the half-maximal activity concentration (AC50) in assay [7] is more than 10 µM; in assay [8], more than 30 µM; in assay [9], more than 10 µM; in assay [11] it was more than 10 µM; in assay [10], more than 10 µM.
For the compound `CC[N+]1(C)CCCC(OC(=O)C(O)(c2ccccc2)c2ccccc2)C1` (centres undefined) [PIPENZOLATE], the AC50 in [1], in assay [2], in assay [3], in [4], in [5] and in assay [6] was more than 30 µM throughout. Moreover, the concentration at half-maximal activity (AC50) in assay [7], in assay [8], in assay [9], in assay [11] and in assay [10] was more than 30 µM each time.
Turning to `CCN(CC)CC(=O)Oc1ccc(NC(C)=O)cc1` [PROPACETAMOL], the AC50 in [1], in assay [3], in assay [4], in assay [5], in [6] and in [7] was more than 30 µM throughout. The AC50 in assay [8], in [9], in [11] and in [10] was more than 30 µM throughout.
With `CC(C)CC(N(C)C)C1(c2ccc(Cl)cc2)CCC1` (centres undefined) [SIBUTRAMINE], the concentration at half-maximal activity (AC50) in assay [1] was more than 30 µM; in assay [2], more than 10 µM; in [3], more than 30 µM; in assay [4] it was more than 30 µM; in assay [5], more than 30 µM; in assay [6], more than 30 µM. The AC50 in assay [7] was more than 10 µM; in assay [8] it was more than 30 µM; in [9], more than 30 µM; in [10] it was more than 10 µM.
